Reference: patent US20250042879A1, “HETEROCYCLIC SUBSTITUTED 1,3,4-THIADIAZOLE AND PYRIDAZINE COMPOUNDS AND METHODS OF USING THE SAME” (Rgenta Therapeutics, Inc., priority 2021, published 2025)

Tests used:
Format in all cases: cell-based
[1] = tested on: HTT (exclusion transcript); assay: RT-qPCR assay to quantify changes in HTT splice isoforms: exclusion transcript; conditions: Homo sapiens, SK-N-SH cells, approximately 96 hours, GAPDH reference
Procedure: (§1) SK—N—SH cells were seeded at 8.5e3 per well in a 96 well plate, in […] (×4 plates, quadruplicate) and treated with the indicated compounds at different concentrations with a final DMSO concentration of 0.5%. Vehicle controls were set up by diluting DMSO 1:200. Cells were returned to a humidified incubator at 37° C., 5% CO2 and treated for approximately 96 hours.
(§2) RNA was isolated from each well using QIAGEN RNeasy mini columns (cat #74004) as per the manufacturer's instructions. Each condition was done in quadruplicate as mentioned above to allow for adequate starting template for downstream analyses. These quadruplicates were pooled (by condition) into single replicates at the cell lysis step. Reverse-transcription was done using the Applied Biosystems High-Capacity cDNA Reverse Transcription Kit (cat #4368814), per the manufacturer's instructions, using approximately half of the harvested RNA. The cDNA was diluted 1:10 in nuclease-free water, and qPCR was done using Applied Biosystems PowerUp SYBR Green Master Mix (cat #A25742) per the manufacturer's instructions. Cycling conditions are primers are detailed below. Each sample was run in technical duplicates.
(§3) Data were analyzed using the 2-DDCT method. GAPDH was used as the reference gene, and vehicle (i.e. DMSO only) treated cells were used as the reference/untreated cell populations. Relative expression of the HTT transcripts was plotted using Graphpad Prism.

[2] = tested on: HTT; assay: Mini-gene reporter assay-HTT (firefly luciferase, exon inclusion); conditions: for EC50: Homo sapiens, HTT mini-gene firefly luciferase reporter transiently transfected into HEK293 cells; for Emax at 5 µM: HTT Minigene, read-out: % Efficacy at 5 μM
Method in brief: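 HEK293 cells transiently transfected with a pcDNA3.1 mini-gene carrying the alternatively skipped exon with flanking introns and exons fused to firefly luciferase were incubated with compound, in duplicate. Exon inclusion raises luciferase luminescence. EC50 came from Levenberg-Marquardt curve fitting.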

[3] = tested on: HTT (inclusion transcript); assay: RT-qPCR assay to quantify changes in HTT splice isoforms: inclusion transcript; conditions: Homo sapiens, SK-N-SH cells, approximately 96 hours, GAPDH reference
Procedure: as §1, §2, §3

Row | Structure (SMILES) | EC50 [1] [nM] | EC50 [2] [nM] | EC50 [3] [nM] | Emax at 5 µM [2] [%]
1 | CCN1CC(c2ccc(-c3ccc(-c4ccc5nc(C)cn5n4)cc3O)nn2)C1 [Compound 38, 2-[6-(1-ethylazetidin-3-yl)pyridazin-3-yl]-5-{2-methylimidazo[1,2-b]pyridazin-6-yl}phenol] | < 50 | 50 to 500 | > 1000 | 
2 | Cc1cn2cc(-c3ccc(-c4ccc(C5CN(C)C5)nn4)c(O)c3)cc(F)c2n1 [Compound 12, 5-{8-fluoro-2-methylimidazo[1,2-a]pyridin-6-yl}-2-[6-(1-methylazetidin-3-yl)pyridazin-3-yl]phenol] | < 50 | 50 to 500 | 500 to 1000 | 
3 | Cc1cn2cc(-c3ccc(-c4ccc(C5CN(C)C5)nn4)c(O)c3)cc(C(F)(F)F)c2n1 [Compound 26, 5-[2-methyl-8-(trifluoromethyl)imidazo[1,2-a]pyridin-6-yl]-2-[6-(1-methylazetidin-3-yl)pyridazin-3-yl]phenol] | 50 to 500 | ≥ 1000 | 500 to 1000 | 
4 | Cc1cn2cc(-c3ccc(-c4ccc(C5CN(C(C)C)C5)nn4)c(O)c3)cc(F)c2n1 [Compound 15, 5-{8-fluoro-2-methylimidazo[1,2-a]pyridin-6-yl}-2-{6-[1-(propan-2-yl)azetidin-3-yl]pyridazin-3-yl}phenol] | < 50 | 50 to 500 | < 50 | 
5 | Cn1cc2cc(-c3ccc(-c4ccc(C5CN(C6CCOCC6)C5)nn4)c(O)c3)ccc2n1 [Compound 22, 5-(2-methyl-2H-indazol-5-yl)-2-{6-[1-(oxan-4-yl)azetidin-3-yl]pyridazin-3-yl}phenol] | < 50 | 500 to 1000 |  | 
6 | CC(C)N1CC(c2ccc(-c3ccc(-c4ccc5nn(C)cc5c4)cc3O)nn2)C1 [Compound 23, 2-(6-(1-isopropylazetidin-3-yl)pyridazin-3-yl)-5-(2-methyl-2H-indazol-5-yl)phenol] | < 50 | ≥ 1000 | > 1000 | 
7 | COc1cc(-c2ccc(-c3ccc(C4CN(Cc5cnsc5)C4)nn3)c(O)c2)cc2cn(C)nc12 [Compound 182] |  |  |  | 25 to 75
8 | COc1cc(-c2ccc(-c3ccc(C4CN(CC5CCCOC5)C4)nn3)c(O)c2)cc2cn(C)nc12 (stereo not shown) [Compound 147] |  |  |  | > 750
9 | Cc1cn2cc(-c3ccc(-c4ccc(C5CN(Cc6cc(C)n(C)n6)C5)nn4)c(O)c3)cc(F)c2n1 [Compound 96] |  |  |  | < 25
10 | CCC(COC)N1CC(c2ccc(-c3ccc(-c4cc(F)c5nc(C)cn5c4)cc3O)nn2)C1 (stereo not shown) [Compound 92] |  |  |  | > 750
11 | COc1cc(-c2ccc(-c3ccc(C4CN(Cc5ccc(C)nn5)C4)nn3)c(O)c2)cc2cn(C)nc12 [Compound 180] |  |  |  | 25 to 75
12 | Cc1cn2cc(-c3ccc(-c4ccc(C5CNC5)nn4)c(O)c3)ccc2n1 [Compound 2, 2-(6-(azetidin-3-yl)pyridazin-3-yl)-5-(2-methylimidazo[1,2-a]pyridin-6-yl)phenol] |  | 50 to 500 |  | 
13 | COc1cc(-c2ccc(-c3ccc(C4CN(Cc5cccnc5)C4)nn3)c(O)c2)cc2cn(C)nc12 [Compound 130] |  |  |  | 25 to 75
14 | CCN1CC(c2ccc(-c3ccc(-c4cc(C)c5nc(C)cn5c4)cc3O)nn2)C1 [Compound 36, 5-{2,8-dimethylimidazo[1,2-a]pyridin-6-yl}-2-[6-(1-ethylazetidin-3-yl)pyridazin-3-yl]phenol] | 50 to 500 | ≥ 1000 |  | 
15 | Cc1cn2cc(-c3ccc(-c4ccc(C5CN(C6CCc7cn[nH]c7C6)C5)nn4)c(O)c3)cc(F)c2n1 (stereo not shown) [Compound 128] |  |  |  | 25 to 75
16 | COc1cc(-c2ccc(-c3ccc(C4CN(CC5CCSCC5)C4)nn3)c(O)c2)cc2cn(C)nc12 [Compound 167] |  |  |  | 25 to 75
17 | CCCC(CN1CC(c2ccc(-c3ccc(-c4cc(OC)c5nn(C)cc5c4)cc3O)nn2)C1)OC (stereo not shown) [Compound 176] |  |  |  | 25 to 75
18 | COc1cc(-c2ccc(-c3ccc(C4CN(CC5CC=CCC5)C4)nn3)c(O)c2)cc2cn(C)nc12 (stereo not shown) [Compound 131] |  |  |  | > 750
19 | COc1cc(-c2ccc(-c3ccc(C4CN(C)C4)nn3)c(O)c2)cc2cn(C)nc12 [Compound 28, 5-(7-methoxy-2-methyl-2H-indazol-5-yl)-2-[6-(1-methylazetidin-3-yl)pyridazin-3-yl]phenol] | < 50 | 50 to 500 | 500 to 1000 | 
20 | Cc1cn2cc(-c3ccc(-c4ccc(C5CN(C6COCCOC6)C5)nn4)c(O)c3)cc(F)c2n1 [Compound 97] |  |  |  | 25 to 75
